{"source": "paper PMC3124785", "about": "(ACS chemical neuroscience, 2011)", "key": {"primary cortical neurons": {"system": "primary cortical neurons", "conditions": "for effect of GPR30 antagonist G15 on neuroprotection: G15 100 nM pre-treatment, test compounds 100 nM; for neuroprotection against OGD by BT-SERM analogs and derivatives: all 100 nM, MTT assay; for neuroprotection against OGD at lower concentrations: 1 μM or below; for effect of G15 on neuroprotection by antioxidants / sulforaphane: G15 pre-treatment (-45 min); for neuroprotection against OGD by antioxidants / sulforaphane: concentration series; for neuroprotection against OGD, initial screen of BT-SERMs: BT-SERMs 100 nM; for concentration giving equivalence to E2 (10 nM) in neuroprotection: MTT cell viability assay, 2 h OGD, 24 h reperfusion"}, "ERβ": {"system": "ERβ", "conditions": "cited from earlier work"}, "ER": {"target": "T1, ER (Homo sapiens, UniProt P03372)", "T1 sequence (P03372 1-595)": "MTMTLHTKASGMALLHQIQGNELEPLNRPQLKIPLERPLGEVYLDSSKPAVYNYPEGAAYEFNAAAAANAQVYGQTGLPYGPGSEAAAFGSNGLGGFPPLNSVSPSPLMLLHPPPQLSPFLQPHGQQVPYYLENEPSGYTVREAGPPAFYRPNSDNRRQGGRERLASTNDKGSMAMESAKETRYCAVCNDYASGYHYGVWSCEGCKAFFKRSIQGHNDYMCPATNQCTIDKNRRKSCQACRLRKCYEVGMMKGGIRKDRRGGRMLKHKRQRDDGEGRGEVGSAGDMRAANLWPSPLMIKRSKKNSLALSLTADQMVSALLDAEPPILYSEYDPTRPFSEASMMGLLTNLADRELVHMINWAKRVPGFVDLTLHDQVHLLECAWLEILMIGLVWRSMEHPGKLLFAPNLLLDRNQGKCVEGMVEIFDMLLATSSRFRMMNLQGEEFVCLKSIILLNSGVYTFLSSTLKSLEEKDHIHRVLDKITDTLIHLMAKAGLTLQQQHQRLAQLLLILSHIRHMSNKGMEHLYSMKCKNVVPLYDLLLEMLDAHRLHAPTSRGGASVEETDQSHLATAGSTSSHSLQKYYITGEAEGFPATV", "conditions": "Fig. 1; cited from earlier work"}, "ERα": {"system": "ERα", "conditions": "cited from earlier work"}, "iNOS": {"target": "iNOS", "conditions": "read-out: Ki iNOS; cited from earlier work"}}, "note": "Entries after “also recorded” stand apart in the source; their conditions may differ. Like-named read-outs stand apart in the source and are kept apart here."}
{"smiles": "Oc1cccc(-c2cn(-c3cccc(O)c3)nn2)c1", "note": "[3,3-TDP]", "values": [{"measurement": "effect of GPR30 antagonist G15 on neuroprotection", "setting": "primary cortical neurons; E2 10 nM", "result": "GPR30-dependent"}, {"measurement": "neuroprotection against OGD by BT-SERM analogs and derivatives", "setting": "primary cortical neurons", "result": "neuroprotective"}]}
{"smiles": "Oc1ccc(-c2cn(-c3ccc(O)cc3)nn2)cc1", "note": "[4,4-TDP]", "values": [{"measurement": "neuroprotection against OGD by BT-SERM analogs and derivatives", "setting": "primary cortical neurons", "result": "no neuroprotective activity"}]}
{"smiles": "Cc1cc(C(C)(C)C)c(O)c(C(C)(C)C)c1", "note": "[BHT, butylated hydroxtoluene]", "values": [{"measurement": "neuroprotection against OGD at lower concentrations", "setting": "primary cortical neurons; MTT and LDH", "result": "neuroprotective"}, {"measurement": "effect of G15 on neuroprotection by antioxidants / sulforaphane", "setting": "primary cortical neurons", "result": "insensitive to antagonism by G15"}, {"measurement": "neuroprotection against OGD by antioxidants / sulforaphane", "setting": "primary cortical neurons; MTT and LDH", "result": "neuroprotective"}, {"measurement": "effect in OGD neurons at higher concentration", "setting": "primary cortical neurons; higher concentration (10 μM), MTT and LDH", "result": "neurotoxicity; also recorded: neurotoxic"}]}
{"smiles": "Oc1ccc(-c2cc3ccc(O)cc3s2)cc1", "note": "[BTC, 2-(4-hydroxyphenyl)-benzo[b]thiophen-6-ol]", "values": [{"measurement": "neuroprotection against OGD, initial screen of BT-SERMs", "setting": "primary cortical neurons; MTT and LDH", "result": "active"}, {"measurement": "effect of G15 on neuroprotection by antioxidants / sulforaphane", "setting": "primary cortical neurons", "result": "did not inhibit neuroprotection"}, {"measurement": "ER subtype selectivity", "setting": "ERβ; ERβ versus ERα, Fig. 1", "result": "selectivity for ERβ"}, {"measurement": "ER activity in cell culture", "setting": "ER", "result": "ER agonist activity"}]}
{"smiles": "Oc1ccc(-c2sc3cc(O)ccc3c2Oc2ccc(OCCN3CCCCC3)cc2)cc1", "note": "[DMA, [6-hydroxy-3-[4-[2-(1-piperidinyl)-ethoxy]phenoxy]-2-(4-hydroxyphenyl)]benzo[b]thiophene]", "values": [{"measurement": "neuroprotection against OGD, initial screen of BT-SERMs", "setting": "primary cortical neurons; MTT and LDH", "result": "neuroprotective"}, {"measurement": "concentration giving equivalence to E2 (10 nM) in neuroprotection", "setting": "primary cortical neurons", "result": 28, "unit": "nM"}, {"measurement": "binding to ERα", "setting": "ERα", "result": "high affinity"}, {"measurement": "binding to ERβ", "setting": "ERβ", "result": "high affinity"}]}
{"smiles": "C[C@]12CC[C@@H]3c4ccc(O)cc4CC[C@H]3[C@@H]1CC[C@@H]2O", "note": "[E2, 17β-estradiol]", "values": [{"measurement": "effect of GPR30 antagonist G15 on neuroprotection", "setting": "primary cortical neurons; E2 10 nM", "result": "blocked neuroprotection"}, {"measurement": "effect of ER antagonist ICI 182 780 on neuroprotection", "setting": "primary cortical neurons; ICI 1 μM 45 min prior to OGD, SERMs 100 nM, E2 10 nM", "result": "block E2 mediated neuroprotection"}, {"measurement": "greater cell death in the vehicle treated group than the E2 treated group", "setting": "primary cortical neurons; OGD 2 h, recovery 24 h", "result": "30-40%"}, {"measurement": "neuroprotection against OGD by estrogens", "setting": "primary cortical neurons; estrogens 10 nM, E2-BSA 10 ng/mL, MTT and LDH", "result": "neuroprotective"}]}
{"smiles": "Oc1ccc(Oc2c(-c3ccc(F)cc3)sc3cc(O)ccc23)cc1", "note": "[HP-BTF, 2-(4-fluorophenyl)-3-(4-hydroxyphenoxy)benzo[b]thiophen-6-ol]", "values": [{"measurement": "effect of GPR30 antagonist G15 on neuroprotection", "setting": "primary cortical neurons; E2 10 nM", "result": "GPR30-dependent"}, {"measurement": "neuroprotection against OGD by BT-SERM analogs and derivatives", "setting": "primary cortical neurons", "result": "neuroprotective"}]}
{"smiles": "COC(=O)[C@@H](N)CCCNC(N)=N[N+](=O)[O-]", "note": "[L-NAME, L-nitro-arginine methyl ester]", "values": [{"measurement": "effect of L-NAME on neuroprotection", "setting": "primary cortical neurons; L-NAME 100 μM, alone or in combination with estrogen and SERMs", "result": "no significant effect"}]}
{"smiles": "N=C(NCCC[C@H](N)C(=O)O)N[N+](=O)[O-]", "note": "[N^G-nitro-L-arginine]", "values": [{"measurement": "Ki", "setting": "iNOS", "result": 4, "unit": "µM"}]}
{"smiles": "O=C(c1ccc(OCCN2CCCCC2)cc1)c1c(-c2ccc(O)cc2)sc2cc(O)ccc12", "note": "[Ral, raloxifene]", "values": [{"measurement": "neuroprotection against OGD, initial screen of BT-SERMs", "setting": "primary cortical neurons; MTT and LDH", "result": "neuroprotective"}, {"measurement": "concentration giving equivalence to E2 (10 nM) in neuroprotection", "setting": "primary cortical neurons", "result": 68, "unit": "nM"}, {"measurement": "concentration giving equivalence to E2 (10 nM) in neuroprotection", "setting": "primary cortical neurons; listed as raloxifene", "result": 62, "unit": "nM"}]}
{"smiles": "Cc1ccc(C(=O)c2c(-c3ccc(O)cc3)sc3cc(O)ccc23)cc1", "note": "[Tol-BTC, (6-hydroxy-2-(4-hydroxyphenyl)benzo[b]thiophen-3-yl)(p-tolyl)methanone]", "values": [{"measurement": "neuroprotection against OGD by BT-SERM analogs and derivatives", "setting": "primary cortical neurons", "result": "neuroprotective"}]}
{"smiles": "Cc1c(C)c2c(c(C)c1O)CCC(C)(C(=O)O)O2", "note": "(centres unmarked) [Trolox]", "values": [{"measurement": "effect of G15 on neuroprotection by antioxidants / sulforaphane", "setting": "primary cortical neurons", "result": "did not inhibit neuroprotection; also recorded: insensitive to antagonism by G15"}, {"measurement": "neuroprotection against OGD by antioxidants / sulforaphane", "setting": "primary cortical neurons; MTT and LDH", "result": "neuroprotective; also recorded: concentration dependent neuroprotection"}]}
{"smiles": "COc1ccc(-c2sc3cc(O)ccc3c2Oc2ccc(OCCN3CCCCC3)cc2)cc1", "note": "[arzoxifene]", "values": [{"measurement": "neuroprotection against OGD, initial screen of BT-SERMs", "setting": "primary cortical neurons; MTT and LDH", "result": "inactive"}]}
{"smiles": "O=C(CCCCCC(=O)c1c(-c2ccc(O)cc2)sc2cc(O)ccc12)c1c(-c2ccc(O)cc2)sc2cc(O)ccc12", "note": "[bisBTChd, 1,7-bis(6-hydroxy-2-(4-hydroxyphenyl)benzo[b]thiophen-3-yl)heptane-1,7-dione]", "values": [{"measurement": "neuroprotection against OGD by BT-SERM analogs and derivatives", "setting": "primary cortical neurons", "result": "neuroprotective"}]}
{"smiles": "CC(C)c1c(-c2ccc(O)cc2)sc2cc(O)ccc12", "note": "[iPr-BTC, 2-(4-hydroxyphenyl)-3-isopropylbenzo[b]thiophen-6-ol]", "values": [{"measurement": "neuroprotection against OGD by BT-SERM analogs and derivatives", "setting": "primary cortical neurons", "result": "neuroprotective"}]}
{"smiles": "C[S+]([O-])CCCCN=C=S", "note": "(centres unmarked) [sulforaphane]", "values": [{"measurement": "neuroprotection against OGD at lower concentrations", "setting": "primary cortical neurons; MTT and LDH", "result": "neuroprotection"}, {"measurement": "neuroprotection against OGD at lower concentrations", "setting": "primary cortical neurons; MTT and LDH, listed as Sulforaphane", "result": "neuroprotective"}, {"measurement": "effect of G15 on neuroprotection by antioxidants / sulforaphane", "setting": "primary cortical neurons", "result": "did not inhibit neuroprotection; also recorded: insensitive to antagonism by G15"}]}
